Experimental data published in PubChem BioAssay (NCI).
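Five concentrations, 48 hours, 96-well plates. At the GI50, growth is halved. TGI is the concentration that stops growth completely.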

How the values were obtained:
Assay in all cases: NCI-60 cell line screen, 48 h
CAKI-1 renal = test system: CAKI-1 renal
MOLT-4 leukemia = test system: MOLT-4 leukemia
SK-MEL-5 melanoma = test system: SK-MEL-5 melanoma
SK-OV-3 ovarian = test system: SK-OV-3 ovarian
SN12C renal = test system: SN12C renal
SW-620 colon = test system: SW-620 colon
U251 CNS = test system: U251 CNS
UACC-257 melanoma = test system: UACC-257 melanoma

Row | SMILES | GI50 (CAKI-1 renal) [µM] | TGI (CAKI-1 renal) [µM] | GI50 (MOLT-4 leukemia) [µM] | TGI (MOLT-4 leukemia) [µM] | GI50 (SK-MEL-5 melanoma) [µM] | TGI (SK-MEL-5 melanoma) [µM] | GI50 (SK-OV-3 ovarian) [µM] | TGI (SK-OV-3 ovarian) [µM] | GI50 (SN12C renal) [µM] | TGI (SN12C renal) [µM] | GI50 (SW-620 colon) [µM] | TGI (SW-620 colon) [µM] | GI50 (U251 CNS) [µM] | TGI (U251 CNS) [µM] | GI50 (UACC-257 melanoma) [µM] | TGI (UACC-257 melanoma) [µM]
1 | C=C1C(=O)O[C@H]2[C@H]1CC/C(COC(=O)NCc1ccc(Cn3c(=O)sn(CCCCC)c3=O)cc1)=C\CC[C@@]1(C)O[C@@H]21 | 2.84 | 12.9 | 0.59 | 4.06 | 3.92 | 14.3 | 8.77 | 21.1 | 1.71 | 3.72 | 1.31 | 2.85 | 2.2 | 4.93 | 1.57 | 3.03
2 | CC(C)(C)NCC(O)COc1c(Br)c(Br)c(Br)c2c1OC(C)(C)C2 (centres undefined) | 1.71 | 3.22 | 1.59 | 3.16 | 1.55 | 2.89 | 1.83 | 3.3 | 1.87 | 3.43 | 1.7 | 3.1 | 1.92 | 3.41 | 1.99 | 3.91
3 | Clc1ccc(/C=C/c2ccc3ccccc3n2)cc1 | 2.29 | > 57.9 | 3.01 | > 100 | 0.551 | > 100 | 0.519 | > 21 | 2.06 | > 100 | 0.553 | > 100 | 0.441 | > 100 | 1.83 | > 100
4 | CC(NC(=O)Cc1ccc(C(F)(F)P(=O)(OCc2ccc([N+](=O)[O-])o2)N(C)CCCCCl)cc1)c1ccc(OCC2CCCCC2)c(C(N)=O)c1 (centres undefined) | 15.8 | 48.4 | 2.19 | 7.06 | 6.77 | 15.5 | 19.3 | 43.5 | 5.35 | 10.9 | 6.82 | 15.8 | 3.33 | 10.9 | 17.5 | 34.7
5 | c1ccc(-c2nc3n(c2-c2ccc4c(c2)OCO4)CCC3)nc1 | 0.62 | > 25 | 6.63 | > 21.4 | 2.05 | 8.86 | 4.54 | 14.7 | 7.56 | > 25 | 8.47 | > 25 | 6.96 | > 25 | 7.45 | 21.9
6 | C=CC(C)(C)n1cc(C2=C(O)C(=O)C(c3cn(C(C)(C)C=C)c4ccccc34)=C(O)C2=O)c2ccccc21 |  | 6.56 |  | > 45.8 |  | 4.88 |  | 10.4 |  | 7.03 |  | 53.8 |  | 10.4 |  | 9.73
7 | COc1cc(OCc2cccc(-c3ccccc3)c2C)cc(OC)c1CN1CCCCC1C(=O)NCCOCCOCCN (centres undefined) | 1.94 | 5.96 | 2.08 | 5.79 | 1.76 | 3.21 | 10.7 | 24 | 2.47 | 7.01 | 1.9 | 3.87 | 2.1 | 4.44 | 1.83 | 3.68
